In patent US12365651B2, “Use of pirfenidone and derivatives for modulation of B lymphocyte activity and organ protection from acute tissue damage” (Washington University, priority 2017, dated 2025):
“And” between values parts separate entries of the source, which are not always exact repeats. Identical values can stand only once. Like-named read-outs stand apart in the source and are kept apart here.

Key:
[1] = Plasma pharmacokinetics after IV or PO administration; format: in vivo, SD Rat; details: SD Rat
Protocol: Pirfenidone and Pegyonde-6 were administered at equimolar concentrations to rats IV or per os (PO) and serum concentrations measured at different time points to measure pharmacokinetic parameters. The drugs were solubilized in 5% Alcohol+20% PEG 300 in saline.

[2] = system: CD19+CD11b+ and CD19+CD11b− cardiac lymphocytes; test: Transcriptional profiling (RNAseq, KEGG) of sorted cardiac B lymphocytes; format: in vivo, mouse; details: DTR+PFD hearts vs naïve
Text: To gain insight into the mechanism(s) responsible for the immunomodulatory effects of Pirfenidone, we performed transcriptional profiling on CD19+CD11b+ and CD19+CD11b− cardiac lymphocytes that were FACS sorted from naïve, DT-injured mice fed normal chow, and DT-injured mice treated with Pirfenidone chow. […]
We performed transcriptional profiling of cardiac lymphocytes that were isolated from naïve and DTR injured hearts in the presence and absence of Pirfenidone. […] Single-end, 50 bp reads were obtained on an Illumina HiSeq 3000 and aligned to the IIlumina iGenomes GRCm38_Ensembl release of the mouse transcriptome using Tophat2.1(41), yielding an average of 1.8×107 aligned reads per sample. Gene-level quantitation was performed using HTSeq 2(42). mRNAs were included in downstream analyses if present in all biological replicates in any of the 6 experimental groups (CD19+CD11b+ and CD19+CD11b− from WT, DT and DT+PFD) at an abundance of at least 1 read per million. […] KEGG pathways within the following 3 categories were analyzed: signal transduction (3.2), signaling molecules and interactions (3.3), and immune system (5.1).

[3] = IV 40 mg/kg, individual rats 1-3, 40 mg/kg
[4] = PO 40 mg/kg, individual rats 7-9, 40 mg/kg

Cc1ccc(=O)n(-c2ccccc2)c1 [Pirfenidone, 5 methyl-1-phenyl-2-[H] pyridone]
AUMC0-t, Mean ([1]; IV 40 mg/kg): 11482 h*h*ng/mL | AUMC0-∞, Mean ([1]; IV 40 mg/kg): 11490 h*h*ng/mL | CL(/F), Mean ([1]; IV 40 mg/kg): 28.87 mL/min/kg | Vss (/F), Mean ([1]; IV 40 mg/kg): 0.828 L/kg | Plasma concentrations of Pirfenidone ([1]; IV 40 mg/kg, 0.083 h, individual rats 1-3, 40 mg/kg): 34700 ng/mL and 33600 ng/mL | Plasma concentrations of Pirfenidone ([1]; IV 40 mg/kg, 0.25 h, individual rats 1-3, 40 mg/kg): 29300 ng/mL and 25600 ng/mL | Plasma concentrations of Pirfenidone ([1]; IV 40 mg/kg, 0.5 h, individual rats 1-3, 40 mg/kg): 19800 ng/mL and 16100 ng/mL | Plasma concentrations of Pirfenidone ([1]; IV 40 mg/kg, 1 h, individual rats 1-3, 40 mg/kg): 6130 ng/mL and 9860 ng/mL and 4840 ng/mL | Plasma concentrations of Pirfenidone ([1]; IV 40 mg/kg, 2 h, individual rats 1-3, 40 mg/kg): 394 ng/mL and 712 ng/mL and 225 ng/mL | Plasma concentrations of Pirfenidone ([1]; IV 40 mg/kg, 4 h, individual rats 1-3, 40 mg/kg): 6.12 ng/mL and 3.57 ng/mL | Plasma concentrations of Pirfenidone ([1]; IV 40 mg/kg, 8 h, individual rats 1-3, 40 mg/kg): BLOQ (Below lower limit of quantification (1 ng/mL)) | Plasma concentrations of Pirfenidone ([1]; IV 40 mg/kg, 24 h, individual rats 1-3): BLOQ (Below lower limit of quantification (1 ng/mL)) | AUC0-t [1, 3]: 27907 ng·h/mL and 21142 ng·h/mL | AUC0-∞ [1, 3]: 27910 ng·h/mL and 21144 ng·h/mL | AUMC0-t [1, 3]: 10270 h*h*ng/mL and 15155 h*h*ng/mL and 9021 h*h*ng/mL | AUMC0-∞ [1, 3]: 10277.2 h*h*ng/mL and 15166.3 h*h*ng/mL and 9027.6 h*h*ng/mL | CL(/F) [1, 3]: 31.17 mL/min/kg and 23.88 mL/min/kg and 31.53 mL/min/kg | Cmax [1, 3]: 34700 ng/mL and 33600 ng/mL | MRTINF [1, 3]: 32.6 min and 25.6 min | T1/2 [1, 3]: 17 min and 17.3 min | Vss (/F) [1, 3]: 0.898 L/kg and 0.779 L/kg and 0.808 L/kg | AUMC0-∞, Mean ([1]; PO 40 mg/kg): 15669 h*h*ng/mL | Plasma concentrations of Pirfenidone ([1]; PO 40 mg/kg, 0.25 h, individual rats 7-9, 40 mg/kg): 8330 ng/mL and 9540 ng/mL | Plasma concentrations of Pirfenidone ([1]; PO 40 mg/kg, 0.5 h, individual rats 7-9, 40 mg/kg): 6700 ng/mL and 8820 ng/mL | Plasma concentrations of Pirfenidone ([1]; PO 40 mg/kg, 1 h, individual rats 7-9, 40 mg/kg): 3540 ng/mL and 3570 ng/mL | Plasma concentrations of Pirfenidone ([1]; PO 40 mg/kg, 2 h, individual rats 7-9, 40 mg/kg): 2000 ng/mL and 2140 ng/mL | Plasma concentrations of Pirfenidone ([1]; PO 40 mg/kg, 4 h, individual rats 7-9, 40 mg/kg): 7.72 ng/mL and 830 ng/mL and 126 ng/mL | Plasma concentrations of Pirfenidone ([1]; PO 40 mg/kg, 24 h, individual rats 7-9): BLOQ (Below lower limit of quantification (1 ng/mL)) | AUC0-t [1, 4]: 12787 ng·h/mL and 12172 ng·h/mL | AUC0-∞ [1, 4]: 12820 ng·h/mL and 12353 ng·h/mL | AUMC0-t [1, 4]: 9588 h*h*ng/mL and 20769 h*h*ng/mL and 14572 h*h*ng/mL | AUMC0-∞ [1, 4]: 9604 h*h*ng/mL and 21076 h*h*ng/mL and 16326 h*h*ng/mL | Cmax [1, 4]: 8330 ng/mL and 9540 ng/mL | MRTINF [1, 4]: 98.64 min and 79.32 min | T1/2 [1, 4]: 18.8 min and 57.5 min and 70.38 min | Tmax ([1]; Sprague-Dawley, plasma, IV 40 mg/kg, read-out: Tmax, Mean): 4.98 min | concentration at 0.083 h ([1]; Sprague-Dawley, rat, plasma, iv, 40 mg/kg, IV 40 mg/kg, 0.083 h, individual rats 1-3, read-out: Plasma concentrations of Pirfenidone): 32900 ng/mL | concentration at 0.083 h ([1]; Sprague-Dawley, rat, plasma, iv, 40 mg/kg, IV 40 mg/kg, 0.083 h, read-out: Plasma concentrations of Pirfenidone, Mean): 33700 ng/mL | concentration at 0.25 h ([1]; Sprague-Dawley, rat, plasma, iv, 40 mg/kg, IV 40 mg/kg, 0.25 h, individual rats 1-3, read-out: Plasma concentrations of Pirfenidone): 21400 ng/mL | concentration at 0.25 h ([1]; Sprague-Dawley, rat, plasma, iv, 40 mg/kg, IV 40 mg/kg, 0.25 h, read-out: Plasma concentrations of Pirfenidone, Mean): 25400 ng/mL | concentration at 0.5 h ([1]; Sprague-Dawley, rat, plasma, iv, 40 mg/kg, IV 40 mg/kg, 0.5 h, individual rats 1-3, read-out: Plasma concentrations of Pirfenidone): 15800 ng/mL | concentration at 0.5 h ([1]; Sprague-Dawley, rat, plasma, iv, 40 mg/kg, IV 40 mg/kg, 0.5 h, read-out: Plasma concentrations of Pirfenidone, Mean): 17200 ng/mL | concentration at 1 h ([1]; Sprague-Dawley, rat, plasma, iv, 40 mg/kg, IV 40 mg/kg, 1 h, read-out: Plasma concentrations of Pirfenidone, Mean): 6940 ng/mL | concentration at 2 h ([1]; Sprague-Dawley, rat, plasma, iv, 40 mg/kg, IV 40 mg/kg, 2 h, read-out: Plasma concentrations of Pirfenidone, Mean): 444 ng/mL | concentration at 4 h ([1]; Sprague-Dawley, rat, plasma, iv, 40 mg/kg, IV 40 mg/kg, 4 h, individual rats 1-3, read-out: Plasma concentrations of Pirfenidone): 4.27 ng/mL | concentration at 4 h ([1]; Sprague-Dawley, rat, plasma, iv, 40 mg/kg, IV 40 mg/kg, 4 h, read-out: Plasma concentrations of Pirfenidone, Mean): 4.7 ng/mL | concentration at 8 h ([1]; Sprague-Dawley, rat, plasma, iv, 40 mg/kg, IV 40 mg/kg, 8 h, individual rats 1-3, read-out: Plasma concentrations of Pirfenidone): 1.22 ng/mL | concentration at 8 h ([1]; Sprague-Dawley, rat, plasma, iv, 40 mg/kg, IV 40 mg/kg, 8 h, read-out: Plasma concentrations of Pirfenidone, Mean): 1.22 ng/mL | AUC0-t ([1]; Sprague-Dawley, rat, plasma, iv, 40 mg/kg, IV 40 mg/kg, read-out: AUC0-t, Mean): 23500 ng·h/mL | AUC(0-inf) ([1]; Sprague-Dawley, rat, plasma, iv, 40 mg/kg, IV 40 mg/kg, read-out: AUC0-∞, Mean): 23500 ng·h/mL | Cmax ([1]; Sprague-Dawley, rat, plasma, iv, 40 mg/kg, IV 40 mg/kg, read-out: Cmax, Mean): 33700 ng/mL | MRT inf ([1]; Sprague-Dawley, rat, plasma, iv, 40 mg/kg, IV 40 mg/kg, read-out: MRTINF, Mean): 29 min | half-life ([1]; Sprague-Dawley, rat, plasma, iv, 40 mg/kg, IV 40 mg/kg, read-out: T1/2, Mean (converted)): 21.4 min | concentration at 0.25 h ([1]; Sprague-Dawley, rat, plasma, po, 40 mg/kg, PO 40 mg/kg, 0.25 h, individual rats 7-9, read-out: Plasma concentrations of Pirfenidone): 9130 ng/mL | concentration at 0.25 h ([1]; Sprague-Dawley, rat, plasma, po, 40 mg/kg, PO 40 mg/kg, 0.25 h, read-out: Plasma concentrations of Pirfenidone, Mean): 9000 ng/mL | concentration at 0.5 h ([1]; Sprague-Dawley, rat, plasma, po, 40 mg/kg, PO 40 mg/kg, 0.5 h, individual rats 7-9, read-out: Plasma concentrations of Pirfenidone): 8450 ng/mL | concentration at 0.5 h ([1]; Sprague-Dawley, rat, plasma, po, 40 mg/kg, PO 40 mg/kg, 0.5 h, read-out: Plasma concentrations of Pirfenidone, Mean): 7990 ng/mL | concentration at 1 h ([1]; Sprague-Dawley, rat, plasma, po, 40 mg/kg, PO 40 mg/kg, 1 h, individual rats 7-9, read-out: Plasma concentrations of Pirfenidone): 5110 ng/mL | concentration at 1 h ([1]; Sprague-Dawley, rat, plasma, po, 40 mg/kg, PO 40 mg/kg, 1 h, read-out: Plasma concentrations of Pirfenidone, Mean): 4070 ng/mL | concentration at 2 h ([1]; Sprague-Dawley, rat, plasma, po, 40 mg/kg, PO 40 mg/kg, 2 h, individual rats 7-9, read-out: Plasma concentrations of Pirfenidone): 1190 ng/mL | concentration at 2 h ([1]; Sprague-Dawley, rat, plasma, po, 40 mg/kg, PO 40 mg/kg, 2 h, read-out: Plasma concentrations of Pirfenidone, Mean): 1780 ng/mL | concentration at 4 h ([1]; Sprague-Dawley, rat, plasma, po, 40 mg/kg, PO 40 mg/kg, 4 h, read-out: Plasma concentrations of Pirfenidone, Mean): 321 ng/mL | concentration at 8 h ([1]; Sprague-Dawley, rat, plasma, po, 40 mg/kg, PO 40 mg/kg, 8 h, read-out: Plasma concentrations of Pirfenidone, Mean): 65.3 ng/mL | Cmax ([1]; Sprague-Dawley, rat, plasma, po, 40 mg/kg, PO 40 mg/kg, individual rats 7-9, read-out: Cmax): 9130 ng/mL | MRT inf ([1]; Sprague-Dawley, rat, plasma, po, 40 mg/kg, PO 40 mg/kg, individual rats 7-9, read-out: MRTINF): 52 min | AUC0-t ([1]; Sprague-Dawley, rat, serum, iv, 40 mg/kg, IV 40 mg/kg, individual rats 1-3, read-out: AUC0-t): 21400 ng·h/mL | AUC(0-inf) ([1]; Sprague-Dawley, rat, serum, iv, 40 mg/kg, IV 40 mg/kg, individual rats 1-3, read-out: AUC0-∞): 21400 ng·h/mL | Cmax ([1]; Sprague-Dawley, rat, serum, iv, 40 mg/kg, IV 40 mg/kg, individual rats 1-3, read-out: Cmax): 32900 ng/mL | MRT inf ([1]; Sprague-Dawley, rat, serum, iv, 40 mg/kg, IV 40 mg/kg, individual rats 1-3, read-out: MRTINF): 28.8 min | half-life ([1]; Sprague-Dawley, rat, serum, iv, 40 mg/kg, IV 40 mg/kg, individual rats 1-3, read-out: T1/2 (converted)): 30 min | AUC0-t ([1]; Sprague-Dawley, rat, serum, po, 40 mg/kg, PO 40 mg/kg, individual rats 7-9, read-out: AUC0-t): 11100 ng·h/mL | AUC(0-inf) ([1]; Sprague-Dawley, rat, serum, po, 40 mg/kg, PO 40 mg/kg, individual rats 7-9, read-out: AUC0-∞): 11100 ng·h/mL | AUC0-t ([1]; Sprague-Dawley, rat, serum, po, 40 mg/kg, PO 40 mg/kg, read-out: AUC0-t, Mean): 12000 ng·h/mL | AUC(0-inf) ([1]; Sprague-Dawley, rat, serum, po, 40 mg/kg, PO 40 mg/kg, read-out: AUC0-∞, Mean): 12100 ng·h/mL | Cmax ([1]; Sprague-Dawley, rat, serum, po, 40 mg/kg, PO 40 mg/kg, read-out: Cmax, Mean): 9000 ng/mL | MRT inf ([1]; Sprague-Dawley, rat, serum, po, 40 mg/kg, PO 40 mg/kg, read-out: MRTINF, Mean): 76.8 min | half-life ([1]; Sprague-Dawley, rat, serum, po, 40 mg/kg, PO 40 mg/kg, read-out: T1/2, Mean (converted)): 48.9 min | Tmax ([1]; Sprague-Dawley, serum, IV 40 mg/kg, individual rats 1-3, read-out: Tmax): 4.98 min | bioavailability ([1]; Sprague-Dawley, serum, PO 40 mg/kg vs IV 40 mg/kg): 22.6% | Tmax ([1]; Sprague-Dawley, serum, PO 40 mg/kg, read-out: Tmax, Mean): 15 min | KEGG pathways enriched after DT injury in CD19+CD11b+ lymphocytes ([2]; 6 pathways): not activated | KEGG pathways enriched after DT injury in CD19+CD11b− lymphocytes ([2]; with the exception of the hematopoietic cell lineage pathway): none of these pathways was significantly enriched
